The supplement of paper PMC11208160

Experiment: recombinant barcode read abundance after kanamycin selection (control-corrected) (log10(CPM+1)); higher = more efficient recombination; sequences stand for … in AGTGCAGAGAAAATCGGCCAGTTTTCTCTGCCTGCAGTCCGCATGCCGT…AGATTTATGCAGCGGACTGCCTTTCTCCCAAAGTGATAAACCGGACAGTATCATGGACCGGTTTTCCCGGTAATCCGTATTTGCAAGGTTGGTTTCACT; site = the 11-nt target
Summary of the method: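 Oligos holding a promoter, target, barcode and the J23119-driven first 104 bases of the bridge RNA were Gibson-cloned into a vector that supplied the other 73 bp plus a T7-inducible recombinase. This library was co-electroporated with a donor plasmid into E. coli. Two replicates went on chloramphenicol/ampicillin LB agar (control) and two on chloramphenicol/ampicillin/kanamycin with 0.1 mM IPTG. Recombination efficiency is read from averaged, control-corrected barcode counts per million at recombinant junctions, reported as log10(CPM+1).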
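Further: IS621 recombinase and bridge RNA in Escherichia coli cells.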

Sequence	recombinant barcode read abundance (log10)
CCTGATTCTTGGGTTCTAACCTGTTGCCT (site CCTGAATCTAG)	0.0629
CCTGATTCTTGGGTTCTAACCTGTTGCCT (site CCTGACTCTAG)	0.113
CCTGATTCTTGGGTTCTAACCTGTTGCCT (site CCTGAGTCTAG)	0.107
CCTGATTCTTGGGTTCTAACCTGTTGCCT (site CCTGATTCTAG)	0.322
CCTGGACCTTGGGTTCTAACCTGTTGCTT (site CCTGGACCTAA)	1.87
CCTGGACCTTGGGTTCTAACCTGTTGCTT (site CCTGGTCCTAT)	0
CCTGGCACTTGGGTTCTAACCTGTTGCGA (site CCTAGCACTTC)	1.45
CCTGGCACTTGGGTTCTAACCTGTTGCGA (site CCTCGCACTTC)	0.0518
CCTGGCACTTGGGTTCTAACCTGTTGCGA (site CCTGGCACTTC)	2.37
CCTGGCACTTGGGTTCTAACCTGTTGCGA (site CCTTGCACTTC)	0.0559
CCTGGGCCTTGGGTTCTAACCTGTTGCTT (site CCTGGACCTAC)	0.471
CCTGGGCCTTGGGTTCTAACCTGTTGCTT (site CCTGGGCCTAA)	0.686
CCTGGGGCTTGGGTTCTAACCTGTTGCCT (site CCTGGGGCTAG)	0.233
CCTGGGGCTTGGGTTCTAACCTGTTGCCT (site CCTGGTCCTAG)	0.189
CCTGTATCTTGGGTTCTAACCTGTTGCCT (site ACTGTATCTAG)	0.0208
CCTGTATCTTGGGTTCTAACCTGTTGCCT (site CCTGTATCTAG)	0.127
CCTGTATCTTGGGTTCTAACCTGTTGCCT (site GCTGTATCTAG)	0.26
CCTGTATCTTGGGTTCTAACCTGTTGCCT (site TCTGTATCTAG)	0.039

Sequence	recombinant barcode read abundance (log10)
CCTTACACTTGGGTTCTAACCTGTTGCGG (site CCTGACACTCC)	0.063
CCTTACACTTGGGTTCTAACCTGTTGCGG (site CCTTACACTCC)	2.53
CCTTACCCTTGGGTTCTAACCTGTTGCCT (site CCTTACCCTAG)	1.11
CCTTACCCTTGGGTTCTAACCTGTTGCCT (site CCTTAGCCTAG)	0.0606
CCTTCTCCTTGGGTTCTAACCTGTTGCAT (site CCTTCTCCTAT)	0.319
CCTTCTCCTTGGGTTCTAACCTGTTGCAT (site GTACGATCTCC)	0.146
CCTTGCACTTGGGTTCTAACCTGTTGCGA (site CCTAGCACTTC)	0.0223
CCTTGCACTTGGGTTCTAACCTGTTGCGA (site CCTCGCACTTC)	0.0306
CCTTGCACTTGGGTTCTAACCTGTTGCGA (site CCTGGCACTTC)	0.0155
CCTTGCACTTGGGTTCTAACCTGTTGCGA (site CCTTGCACTTC)	0.409
CCTTGGGCTTGGGTTCTAACCTGTTGCTT (site CCTTGGGCTAA)	0.011
CCTTGGGCTTGGGTTCTAACCTGTTGCTT (site CTTTGGCCTAA)	0.305
CCTTGTACTTGGGTTCTAACCTGTTGCCT (site CCTTGTACTAG)	0.035
CCTTGTACTTGGGTTCTAACCTGTTGCCT (site CTTTGTACTAG)	0.0491
CCTTTACCTTGGGTTCTAACCTGTTGCCT (site ACTTTACCTAG)	0.136
CCTTTACCTTGGGTTCTAACCTGTTGCCT (site CCTTTACCTAG)	0.337
CCTTTACCTTGGGTTCTAACCTGTTGCCT (site GCTTTACCTAG)	0.0546
CCTTTACCTTGGGTTCTAACCTGTTGCCT (site TCTTTACCTAG)	0.171
